Consider one molecule from patent US6031135A, “Trimethylsphingosine derivatives” (Oncomembrane, Inc., priority 1996, dated 2000).

SMILES strings stand for the structures. “Also recorded” adds a separate entry of the source.

One test deals with B16BL6 melanoma cells. Put plainly: metastasis of B16BL6 melanoma cells (lung metastatic deposits in mice). Conditions: BL6 cells injected into mice; irrespective of route or timing. In kind it is in vivo, mouse. The protocol: BL6 cells were injected into mice and metastatic deposits in the lung were assessed after various treatments including route and timing, of administration.

The test system of the next test is BL6 cells. Put plainly: tritiated thymidine incorporation, cell growth. In kind it is cell-based, mouse. As to conditions: BL6 cells in vitro. As to the method: (§1) An in vitro assay relying on tritiated thymidine incorporation can be used to ascertain the effect of various compounds on cell proliferation. Briefly, tumor cells are seeded in flat bottom 96 well plates (Corning, N.Y.) at a concentration of 2×10^4 cells per well. The cells were cultured for 2 days in DMEM containing various concentrations of sphingoid which was added as a PBS solution. The medium then was supplemented with tritiated thymidine at a concentration of 0.5 μCi per well. Following a six hour incubation the cells were collected using the PHD Cell Harvester (Cambridge Technology, Cambridge, Mass.) and amounts of incorporated radioactivity were determined after adding a suitable cell lysing agent and scintillation cocktail, such as ScintiVerse BD (Fisher Scientific, Fairlawn, Calif.) which performs both functions.
(§2) Certain cancer cells show a higher metastatic potential and invasive capability than others. For example, in the mouse, the BL6 and F10 melanoma cell lines are highly metastatic and invasive. On the other hand, the F1 variant is much less metastatic and invasive (I. R. Hart et al., Amer. J. Pathol., 97, 587-592 (1979); G. Poote et al., Cancer Res. 42, 2770-2778 (1982); F1 and F10 clones from ATCC CRL 6323, and CRL 6475, respectively). BL6 and F1 cells were tested in vitro as described above. […]

In the next test the test system is F1 cells. Put plainly: tritiated thymidine incorporation, cell growth. In kind it is cell-based, mouse. Conditions: F1 cells in vitro. The protocol:
as §1, §2

The test system of test [1] is 40 kD (or 47 kD) platelet protein. Briefly: phosphorylation of platelet protein on thrombin stimulation. It is filed as cell-based. From the text:
On thrombin stimulation, a 40 kD (or 47 kD) platelet protein is phosphorylated. […] While not wanting to be bound by their statement, the inventors believe that absence of phosphorylated 40 kD (or 47 kD) protein prevents platelet aggregation.

Another test relates to HL60 cells. Briefly: HL60 adhesion on activated platelet-coated solid phase. In kind it is cell-based, human. Conditions: thrombin-stimulated and PMA-stimulated platelets. As to the method:
HL60 (a human promylelocytic cell line available from the ATCC under accession number CCL 240) adhesion on resting or activated platelet-coatedsolid phase was evaluated as follows. Each well of a 48-well plate (Costar Scientific, Cambridge, Mass.) was filled with a poly-L-lysine solution (100 μg/ml in PBS) and incubated for 1 hour. Each well then was washed with PBS and then 150 μl of PBS containing 6×10^7 resting or activated platelets were added to each well and the plate was incubated for 1 hour. Plates were centrifuged (300×g for 7 minutes) and incubated a further 30 minutes at room temperature. Bound platelets were fixed by addition of 0.1% (w/v) glutaraldehyde in PBS for 2 minutes at 4° C. Each well was washed with 10 mM glycine in PBS and plates were incubated with 5% (w/v) BSA containing 0.1% (w/v) sodium azide, 10 mM glycine in PBS for 1 hour at room temperature.

Test [2] relates to neutrophils. Put plainly: superoxide production in neutrophils (reduction of cytochrome C). It is filed as cell-based, human. The protocol: Human neutrophils were obtained from normal male adults. Heparinized peripheral blood was mixed gently with an equal amount of 1% dextran solution in PBS in a 60 ml injection syringe. The mixture was allowed to sit vertically for 60 to 90 minutes at 37° C. The upper phase, which is rich in white blood cells, was mounted gently on the same volume of Ficoll-Paque (Pharmacia LKB, Uppsala, Sweden) in Falcon 2095 plastic test tubes (Becton Dickinson Labware, Lincoln Park, N.J.). Centrifugation at 450g for 30 min at 4° C. brought the neutrophils to the bottom of the tubes. The upper phase and interface, which contains lymphocytes, were removed carefully by aspiration.
Contaminating erythrocytes were removed from the cell pellet by hypotonic lysis by resuspending the cell pellet in ice-cold distilled water for 30 sec then adding an equal volume of ice-cold 1.8% NaCl solution. After centrifugation at 80g for 10 min, the cells were resuspended with a suitable buffer or media.
The final preparation consisted of more than 98% neutrophils, as determined by Wright-Giemsa staining. The suspension was stored at 4° C. and used within 3 hr.

Test [3] deals with neutrophils. Briefly: phagokinetic activity of neutrophils on gold sol-coated plates. In kind it is cell-based, human. From the text:
The phagokinetic activity of neutrophils on gold sol-coated plates can be determined by a technique essentially as taught in Albrecht-Buehler (Cell, 11, 395, 1977). […] The TMS-dependent inhibitory effect is reversed completely when the culture medium is replaced with TMS-free medium. Thus, the inhibitory effect of TMS on phagokinetic activity is not dependent on cytotoxicity.

The test system of test [4] is neutrophils. Briefly: neutrophil trans-endothelial migration through HUVEC monolayer. It is filed as cell-based, human. Conditions: IL-1β-activated EC's; pre-treatment of neutrophils. The protocol: A characteristic of neutrophils is the ability to adhere to activated EC's and to migrate through the EC monolayer into the vascular or extravascular matrix. The effect of TMS on neutrophil interactions with EC's and their subsequent trans-endothelial migration thereof can be monitored in vitro using human umbilical endothelial cells (HUVEC's) (Luscinskas et al., J. Imm., 146, 1617, 1991). Neutrophils are added to a HUVEC monolayer and neutrophil-HUVEC interactions are assessed microscopically following fixation, embedding and staining of monolayer sections.
Under physiological conditions, neutrophils are able to migrate into the collagenous matrix through the EC monolayer. When EC's are activated with IL-1β in M199 medium for 4 hours, neutrophils migrate into the collagenous matrix within 90 minutes.

The test system of test [5] is 47 kDa and 65 kDa proteins. Briefly: PMA-stimulated protein phosphorylation in 32P-labeled neutrophils. Conditions: neutrophils pre-incubated with 15-45 μM, then 1.5 μM PMA. In kind it is cell-based, human. As to the method:
Excess unbound components were removed by centrifugation and the pellets were resuspended in the same buffer, repeating twice. The cells then were divided into 7 treatment groups, each containing ≈1×10^7 cells in a total volume of 0.4 ml. TMS, SPN or DMS was added to a suspension and incubated at 37° C. for 10 min, followed by addition of PMA to a final concentration of 1.5 μM. Two minutes later, the reaction was terminated by adding 0.1 ml of Laemmli sample buffer and 20 mM EDTA, followed by heating at 100° C. for 5 min. Aliquots were separated through 10% sodium dodecyl sulfate gels using known procedures. ^32 P incorporation was visualized by autoradiography.

As for `CCCCCCCCCCCCC/C=C/C(O)C(CO)[N+](C)(C)C` (stereo not drawn) [TMS, N,N,N-trimethylsphingosine], the “lung colonization and tumor development” value in the test on B16BL6 melanoma cells was “effective in suppressing”. Besides, the inhibiting cell growth entry was “more effective than DMS and sphingosine” in the test with BL6 cells; “more effective than DMS and sphingosine” in the test on F1 cells. The “phosphorylation of the 40 kD (or 47 kD) platelet protein” value in test [1] is on record as “inhibits phosphorylation”. For the same molecule, in the test on HL60 cells, the HL60 cell binding entry is on record as “inhibited strongly”. Moreover, the “Superoxide production in neutrophils” value with neutrophils [2] is recorded as “inhibited by TMS in a dose-dependent manner”. In addition, in the test on neutrophils [3], the Phagokinetic activity result was “suppressed significantly”. Also, the Neutrophil migration result in the test on neutrophils [4] is on record as “inhibited strongly”. Further, the “phosphorylation of 47 kDa and 65 kDa proteins” value in test [5] was “diminished significantly; also recorded: had an affect on phosphorylation”.
